9 compounds from patent US20200087248A1, “Fluoroallylamine Derivative And Use Thereof” (SICHUAN KELUN-BIOTECH BIOPHARMACEUTICAL CO., LTD., priority 2017, published 2020) can be followed below.

Experiment [1] deals with T1, VAP-1 (Homo sapiens, UniProt Q16853).
T1 construct: purchased R&D Systems
T1 sequence (Q16853 1-763): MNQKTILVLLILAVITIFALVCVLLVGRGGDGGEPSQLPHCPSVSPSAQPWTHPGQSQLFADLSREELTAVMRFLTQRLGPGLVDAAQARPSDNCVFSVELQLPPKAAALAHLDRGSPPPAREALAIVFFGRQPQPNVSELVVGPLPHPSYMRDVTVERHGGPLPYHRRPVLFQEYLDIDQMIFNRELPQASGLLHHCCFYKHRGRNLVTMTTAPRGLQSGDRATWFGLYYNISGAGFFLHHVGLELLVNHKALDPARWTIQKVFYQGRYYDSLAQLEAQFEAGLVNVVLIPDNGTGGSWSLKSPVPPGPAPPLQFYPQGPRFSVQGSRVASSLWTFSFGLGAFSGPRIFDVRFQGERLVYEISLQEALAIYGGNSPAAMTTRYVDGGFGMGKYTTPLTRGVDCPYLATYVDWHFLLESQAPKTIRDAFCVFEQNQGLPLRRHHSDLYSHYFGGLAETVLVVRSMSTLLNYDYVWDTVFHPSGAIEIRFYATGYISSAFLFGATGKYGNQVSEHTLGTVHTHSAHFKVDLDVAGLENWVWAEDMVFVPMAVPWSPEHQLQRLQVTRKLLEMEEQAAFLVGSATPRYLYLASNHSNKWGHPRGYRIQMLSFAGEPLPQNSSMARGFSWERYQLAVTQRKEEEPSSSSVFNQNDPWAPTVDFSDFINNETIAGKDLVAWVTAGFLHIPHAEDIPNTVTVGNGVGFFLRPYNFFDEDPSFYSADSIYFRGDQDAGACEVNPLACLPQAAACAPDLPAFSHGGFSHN
The experiment is described as follows: Inhibition of the enzymatic activity of VAP-1 in vitro (Amplex Red). The settings on record: VAP-1 protein about 20 nM, 10 min pre-incubation, benzylamine substrate; read-out: IC50, inhibition against the enzymatic activity of VAP-1. Format: biochemical. In outline: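 About 20 nM recombinant VAP-1 preincubated with compound 10 min at RT in 50 mM PBS pH 7.4; reaction started with […] benzylamine, 1 U/mL HRP and 200 μM Amplex Red. Kinetic fluorescence (Ex/Em 540/590 nm) slope gave rate; IC50 by four-parameter fit.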

For experiment [2], the target named is T2, MAO-B (Homo sapiens, UniProt P27338).
T2 construct: purchased Sigma Aldrich
T2 sequence (P27338 1-520): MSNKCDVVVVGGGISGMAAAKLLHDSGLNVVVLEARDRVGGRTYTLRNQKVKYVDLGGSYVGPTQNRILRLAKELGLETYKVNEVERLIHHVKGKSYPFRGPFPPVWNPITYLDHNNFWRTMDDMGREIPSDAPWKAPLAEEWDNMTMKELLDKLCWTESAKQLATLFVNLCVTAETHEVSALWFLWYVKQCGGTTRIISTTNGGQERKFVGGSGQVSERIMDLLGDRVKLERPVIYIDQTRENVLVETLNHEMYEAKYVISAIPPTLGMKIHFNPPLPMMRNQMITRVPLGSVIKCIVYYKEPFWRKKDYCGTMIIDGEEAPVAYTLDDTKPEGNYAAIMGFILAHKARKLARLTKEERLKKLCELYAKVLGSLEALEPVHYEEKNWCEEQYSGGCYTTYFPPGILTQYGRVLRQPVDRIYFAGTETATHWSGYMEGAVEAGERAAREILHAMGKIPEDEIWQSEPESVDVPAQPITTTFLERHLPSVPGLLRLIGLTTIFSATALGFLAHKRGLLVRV
The experiment is described as follows: Inhibition of the enzymatic activity of MAO-B. Format: biochemical. The settings on record: range of IC50 from inhibition rates at 10 μM, 1 μM and 0.1 μM; read-out: IC50, inhibition against the enzymatic activity of MAO-B. How it is done:
Inhibition Experiment Against the Enzymatic Activity of MAO-B (Monoamine Oxidase Type B)
1. Test kit: Amplex® Red Monoamine Oxidase Assay, Manufacturer: ThermoFisher
Protein: MAO-B, manufacturer: Sigma Aldrich
According to the method as described in the specification of the test kit, MAO-B protein (5 μg/ml) and different concentrations of the test compound were pre-incubated at room temperature for 10 minutes, and then 150 μM benzylamine hydrochloride, 1 U/mL HRP and 200 μM Amplex Red reagent were added to start the reaction. The relative inhibition rate of each concentration group were calculated according to the experimental method of MAO-A.
According to the above method, the inhibition of the compound against the activity of the MAO-B was measured, and the range of IC50 was obtained according to the inhibition rates at 10 μM, 1 μM and 0.1 μM.

Structures can show the parent of a compound that is named as a salt. Where only a bound is given, the exact number is not on record here.

Turning to `CC1(C)Cc2cc(OC/C(=C/F)CN)ccc2C(=O)N1` [HC38-E, (E)-6-((2-(aminomethyl)-3-fluoroallyl)oxy)-3,3-dimethyl-3,4-dihydroisoquinolin-1(2H)-one hydrochloride], in experiment [1], the IC50 came out at 2.85 ± 0.3 nM.

In the case of `NC/C(=C\F)COc1ccc(C(=O)Nc2ccccc2)cc1` [TM1-E, (E)-N-phenyl-4-((2-aminomethyl-3-fluoroallyl)oxy)-benzamide trifluoroacetate], the half-maximal inhibitory concentration (IC50) in experiment [1] amounted to 1.6 ± 0.2 nM. As for `NC/C(=C\F)COc1ccc2c(c1)C(=O)CC2` [TM7-E, (E)-6-((2-aminomethyl-3-fluoroallyl)oxy)-2,3-dihydro-1-indenone trifluoroacetate], the values for the half-inhibitory concentration (IC50) in experiment [1] and in experiment [2] were 3 ± 0.7 nM and above 10000 nM, respectively. On the same counts, the results for `NC/C(=C/F)COc1ccc2c(c1)CCNC2=O` [TM26-Z, (Z)-6-((2-aminomethyl-3-fluoroallyl)oxy)-3,4-dihydroisoquinolin-1(2H)-one trifluoroacetate] are 3.7 ± 0.8 nM and above 1000 nM. In the case of `NC/C(=C\F)COc1ccc(-c2ncccn2)cc1` [TM39-E, (E)-2-(4-(2-pyrimidyl)phenoxymethyl)-3-fluoroallylamine trifluoroacetate], the 50% inhibitory concentration (IC50) in experiment [1] stood at 1.2 ± 0.2 nM. For the compound `NC/C(=C\F)COc1ccc(C(=O)NC2CCOCC2)cc1` [TM76-E, (E)-N-(tetrahydro-2H-pyran-4-yl)-4-((2-aminomethyl-3-fluoroallyl)oxy)-benzamide trifluoroacetate], the values for the IC50 in experiment [1] and in experiment [2] were 4.3 ± 0.6 nM and above 1000 nM, respectively. As for `NC/C(=C/F)COc1ccc(C(=O)NCc2ccccn2)cc1` [TM112-Z, (Z)-4-((2-aminomethyl-3-fluoroallyl)oxy)-N-(pyridin-2-ylmethyl)benzamide trifluoroacetate], the concentration for half-maximal inhibition (IC50) in experiment [1] is 6.5 ± 1.8 nM; in experiment [2] it was above 100 nM.

For the compound “(E)-6-((2-(methylamino)-3-fluoroallyl)oxy)-2-methyl-3,4-dihydroisoquinolin-1(2H)-one trifluoroacetate [TM66-E]”, the half-maximal inhibitory concentration (IC50) is 2 ± 0.4 nM in experiment [1] and above 10000 nM in experiment [2].

As for “(E)-6-((2-(methylamino)-3-fluoroallyl)oxy)-3,3-dimethyl-3,4-dihydro-isoquinolin-1(2H)-one trifluoroacetate [TM38-E]”, the half-maximal inhibitory concentration (IC50) is 4.7 ± 1.1 nM in experiment [1] and above 10000 nM in experiment [2].
